Numbers after ± are expanded uncertainties.
Conditions: 101.33 kPa, Liquid; for viscosity: Cone and plate viscometry; for mass density: Vibrating tube method

Row | SMILES | viscosity (298.2 K) | mass density (298.2 K) | viscosity (303.2 K) | mass density (303.2 K) | viscosity (308.2 K) | mass density (308.2 K) | viscosity (313.2 K) | mass density (313.2 K) | viscosity (318.2 K) | mass density (318.2 K) | viscosity (323.2 K) | mass density (323.2 K) | viscosity (328.2 K) | mass density (328.2 K) | viscosity (333.2 K) | mass density (333.2 K) | viscosity (338.2 K) | mass density (338.2 K) | viscosity (343.2 K) | mass density (343.2 K) | also measured
1 | CCCCCCCCCCCCn1ccnc1 [1-dodecyl-1H-imidazole] | 24 ± 0.3 mPa·s | 898.68 ± 0.74 kg/m3 | 20.1 ± 0.3 mPa·s | 895.23 ± 0.73 kg/m3 | 15.9 ± 0.2 mPa·s | 891.79 ± 0.73 kg/m3 | 13.3 ± 0.2 mPa·s | 888.35 ± 0.73 kg/m3 | 11.1 ± 0.2 mPa·s | 884.92 ± 0.72 kg/m3 | 9.42 ± 0.12 mPa·s | 881.49 ± 0.72 kg/m3 | 8.06 ± 0.1 mPa·s | 878.07 ± 0.71 kg/m3 | 6.96 ± 0.09 mPa·s | 874.64 ± 0.71 kg/m3 | 6 ± 0.08 mPa·s | 871.22 ± 0.71 kg/m3 | 5.33 ± 0.07 mPa·s | 867.81 ± 0.7 kg/m3 | viscosity (348.2 K): 4.7 ± 0.06 mPa·s; mass density (348.2 K): 864.4 ± 0.7 kg/m3; viscosity (353.2 K): 4.16 ± 0.05 mPa·s; mass density (353.2 K): 860.98 ± 0.7 kg/m3
2 | c1cn(CCOCCOCCOCCn2ccnc2)cn1 | 535.6 ± 27 mPa·s | 1172.67 ± 1.2 kg/m3 | 356 ± 16 mPa·s | 1168.77 ± 1.2 kg/m3 | 240.2 ± 9.5 mPa·s | 1164.87 ± 1.2 kg/m3 | 178.2 ± 6.2 mPa·s | 1161.05 ± 1.2 kg/m3 | 129.2 ± 4 mPa·s | 1157.29 ± 1.2 kg/m3 | 93.9 ± 2.7 mPa·s | 1153.51 ± 1.2 kg/m3 | 69.8 ± 1.8 mPa·s | 1149.74 ± 1.2 kg/m3 | 56.8 ± 1.4 mPa·s | 1145.96 ± 1.2 kg/m3 | 44.9 ± 1.1 mPa·s | 1142.19 ± 1.1 kg/m3 | 36.7 ± 0.9 mPa·s | 1138.43 ± 1.1 kg/m3 | viscosity (348.2 K): 29.1 ± 0.7 mPa·s; mass density (348.2 K): 1134.66 ± 1.1 kg/m3; viscosity (353.2 K): 24.9 ± 0.6 mPa·s; mass density (353.2 K): 1130.91 ± 1.1 kg/m3
